Laboratory results as given in patent publication US5985822A, “Inhibition of glial cell proliferation with N-CAM homophilic peptides” (The Scripps Research Institute, priority 1995, dated 1999).
Read-outs that look alike come from different tables or passages of the source.

How the values were obtained:
N-CAM = test: Levels of N-CAM expression in astrocytes by Western blotting (antisense experiments); format: cell-based, rat; details: oligonucleotide added for 48 hours
Method: The amounts of N-CAM present in astrocytes were quantified by Western blotting. Cultures were grown as described and cellular material was lysed in buffer (phosphate buffered saline, pH 7.4, containing 0.5% NP-40, 350 μg/ml PMSF, 2 μg/ml aprotinin, 0.5 μg/ml leupeptin, and 0.7 μg/ml pepstatin A) at 4° C. Standard Western blotting techniques were employed either using cell lysate directly or after N-CAM immunoprecipitation. [^125 I]-Immunolabeled N-CAM was estimated by densitometry on a Molecular Dynamics PhosporImager using ImageQuant software.
[…]. After deprotection, the oligonucleotides were purified using HPLC, ethanol precipitated, solubilized in distilled water and added to the culture medium at the indicated concentrations.

[1] = system: rat forebrain astrocytes in primary culture; test: Astrocyte proliferation assay ([3H]-thymidine incorporation normalized to [35S]-methionine); format: cell-based; details: for effect of oligonucleotide preincubation on inhibition of proliferation by N-CAM: 200 nM oligonucleotide 48 hours before 2 μg/ml N-CAM; for effect of oligonucleotide alone on proliferation: 200 nM, no N-CAM added; for effect of drug on the ability of N-CAM to inhibit astrocyte proliferation (in words): drug in the presence of N-CAM; for Drug Alone: means of triplicate (Table 5)
Method: Primary cultures of astrocytes were prepared from the forebrains of 4-5 day old neonatal rats. After decapitation and removal of the forebrains from the skull, the meninges were carefully peeled off, and forebrain tissue was triturated in sterile phosphate buffered saline (PBS) using firepolished pipettes. The resulting suspension of tissue fragments was incubated in Hank's balanced salt solution (Gibco BRL) with 2.5 mg/ml trypsin, 1 mM EDTA and 0.1 mg/ml DNase (Boehringer) at 37° C. for 15 minutes. […] The pellet was resuspended in serum free medium (SFM) consisting of Dulbecco's Modified Eagle Medium (D-MEM), 2 mM L-glutamine, 50 U/ml penicillin G sodium and 50 μg/ml streptomycin sulfate (all from Gibco BRL) supplemented by 10% (vol/vol) fetal bovine serum (FBS). The cells were transferred to a standard 100 mm tissue culture dish (Falcon) and incubated at 37° C. for 1-2 hours. After mild shaking, the supernatant containing unattached cells was transferred to a 100 mm collagen-coated dish. […] Cell samples were checked regularly for the expression of GFAP, a marker for astrocytes.
After cell attachment, the culture medium was exchanged for SFM. In antisense experiments, oligonucleotides were added at the same time (T=0). […] After another 12 hours (at T=60), [^3 H]-thymidine (New England Nuclear, 20 Ci/mmol) was added (0.38 μM, 10 μCi/ml). Following an additional 12 hours (T=72), the wells were drained, counts precipitated by ice-cold […] trichloroacetic acid, and the plates left to dry. Counts were solubilized overnight by adding 100 μl 1 N KOH to each well, neutralized with 100 μl 1 N HCl, transferred to liquid scintillation vials and counted in 3 ml of Beckman Ready Safe liquid scintillation cocktail on a Packard 1600 TR counter. […] In this paper, proliferation is expressed as [^3 H]-thymidine incorporation normalized to [35]-methionine incorporation and calculated as [^3 H] dpm/ [35] dpm.

With “5'-AGAUCCUUAG WUCGCAGCAUUGUA-3' (antisense AGAUCCUUAGUUCGCAGCAUUGUA; phosphorothioate linkages, further chemistry not given here) [N-CAM antisense RNA, phosphorothioate oligoribonucleotide complementary to position 205 to 228 of rat N-CAM]” the “effect on N-CAM expression (in words)” value (N-CAM) was “significantly reduced N-CAM expression”, the “effect of oligonucleotide preincubation on inhibition of proliferation by N-CAM” value [1] was “weaker inhibitory effect of N-CAM on proliferation” and the “effect of oligonucleotide alone on proliferation” value [1] was “no effect on proliferation”.

In the case of “5'-GUCCAUGUACAUCUAGUCAGUUGA-3 (chemistry not given here) [random antisense RNA]”, the “effect on N-CAM expression (in words)” value (N-CAM) is reported as “no effect on N-CAM expression”, the “N-CAM level (sum of all molecular forms, mostly 140 kD and 120 kD)” value (N-CAM; mean ± S.E.M. (n)) is reported as 87 ± 18 % Control and the “effect of oligonucleotide preincubation on inhibition of proliferation by N-CAM” value [1] is reported as “no such effect”. The “effect of oligonucleotide alone on proliferation” value [1] was “no effect on proliferation”.

For `CCCCC/C=C\C/C=C\C/C=C\C/C=C\CCCC(=O)O` [Arachidonic Acid, arachidonic acid], the “[3H]-thymidine incorporation, Drug + N-CAM” value ([1]; drug 10 μM plus N-CAM 2 μg/ml) was 60 ± 12 % SFM Ctrl, the “[3H]-thymidine incorporation, Drug alone” value ([1]; drug 10 μM, 2×10^5 cells/ml) was 107 ± 10 % SFM Ctrl and the “effect of drug on the ability of N-CAM to inhibit astrocyte proliferation (in words)” value [1] was “had no effect on the ability of N-CAM to inhibit astrocyte proliferation”.

`C=C[C@@]1(C)CC(=O)[C@]2(O)[C@@]3(C)[C@@H](O)CCC(C)(C)[C@@H]3[C@H](O)[C@H](OC(C)=O)[C@@]2(C)O1` [Forskolin, forskolin] was tested, and the “[3H]-thymidine incorporation, Drug alone” value ([1]; drug 1 μM, 2×10^5 cells/ml) was 73 ± 2 % SFM Ctrl, the “[3H]-thymidine incorporation, Drug alone” value ([1]; drug 10 μM, 2×10^5 cells/ml) was 32 ± 6 % SFM Ctrl and the “effect of drug on astrocyte proliferation (in words)” value ([1]; drug alone, astrocyte cultures) was “blocks proliferation of astrocytes in culture”.

In the case of `C[C@]12O[C@H](C[C@]1(O)C(=O)O)n1c3ccccc3c3c4c(c5c6ccccc6n2c5c31)CNC4=O` [K252b], the “[3H]-thymidine incorporation, Drug + N-CAM” value ([1]; drug 100 nM plus N-CAM 2 μg/ml) is reported as 85 ± 5 % SFM Ctrl, the “[3H]-thymidine incorporation, Drug alone” value ([1]; drug 100 nM, 2×10^5 cells/ml) is reported as 98 ± 17 % SFM Ctrl and the “[3H]-thymidine incorporation, Drug + N-CAM” value ([1]; drug 200 nM plus N-CAM 2 μg/ml) is reported as 64 ± 1 % SFM Ctrl. The “[3H]-thymidine incorporation, Drug alone” value ([1]; drug 200 nM, 2×10^5 cells/ml) was 78 ± 15 % SFM Ctrl and the “effect of drug on the ability of N-CAM to inhibit astrocyte proliferation (in words)” value [1] was “allowed the astrocytes cells to grow normally”.

In the case of `COC(=O)C=Cc1cc(O)ccc1O` [Methyl 2,5-dihydroxycinnamate, methyl 2,5-dihydroxycinnamate], the “Drug + Ig3” value ([1]; drug 0.25 μg/ml plus Ig3 2 μg/ml (Table 5)) is reported as 59 % of SFM Control, the “Drug + N-CAM” value ([1]; drug 0.25 μg/ml plus N-CAM 2 μg/ml (Table 5)) is reported as 60 % of SFM Control and the “Drug Alone” value ([1]; drug 0.25 μg/ml, 2×10^5 cells/ml) is reported as 65 % of SFM Control.

With `CCCCCCCCCCCCCC(=O)O[C@@H]1[C@@H](C)[C@@]2(O)[C@@H](C=C(CO)C[C@]3(O)C(=O)C(C)=C[C@@H]23)[C@@H]2C(C)(C)[C@]12OC(C)=O` [PMA] the “effect of drug on astrocyte proliferation (in words)” value [1] was “strong mitogenic response”, the “[3H]-thymidine incorporation, Drug alone” value ([1]; drug 10 nM, 2×10^5 cells/ml) was 138 ± 16 % SFM Ctrl and the “[3H]-thymidine incorporation, Drug + N-CAM” value ([1]; drug 100 nM plus N-CAM 2 μg/ml) was 228 % SFM Ctrl. For the same molecule, the “[3H]-thymidine incorporation, Drug alone” value ([1]; drug 100 nM, 2×10^5 cells/ml) was 268 ± 34 % SFM Ctrl.

Pertussis Toxin was tested, and the “effect of drug on astrocyte proliferation (in words)” value [1] was “slightly inhibited astrocyte proliferation”, the “[3H]-thymidine incorporation, Drug + N-CAM” value ([1]; drug 1 μg/ml plus N-CAM 2 μg/ml) was 57 ± 13 % SFM Ctrl and the “[3H]-thymidine incorporation, Drug alone” value ([1]; drug 1 μg/ml, 2×10^5 cells/ml) was 67 ± 13 % SFM Ctrl. For the same molecule, the “[3H]-thymidine incorporation, Drug + N-CAM” value ([1]; drug .5 μg/ml plus N-CAM 2 μg/ml) was 53 ± 9 % SFM Ctrl, the “[3H]-thymidine incorporation, Drug alone” value ([1]; drug .5 μg/ml, 2×10^5 cells/ml) was 74 ± 20 % SFM Ctrl and the “effect of drug on the ability of N-CAM to inhibit astrocyte proliferation (in words)” value [1] was “N-CAM was still able to inhibit proliferation”.

In the case of “bFGF: basic fibroblast growth factor, Upstate Biotechnology Incorporated”, the “proliferation as compared to cultures in SFM” value ([1]; 20 ng/ml bFGF, n=12) is reported as 347±56%.

In the case of calphostin C, the “effect of drug on astrocyte proliferation (in words)” value [1] is reported as “inhibits proliferation”, the “[3H]-thymidine incorporation, Drug alone” value ([1]; drug 0.1 μM, 2×10^5 cells/ml) is reported as 111 ± 35 % SFM Ctrl and the “[3H]-thymidine incorporation, Drug alone” value ([1]; drug 0.5 μM, 2×10^5 cells/ml) is reported as 54 ± 35 % SFM Ctrl.

For mastoparan, the “effect of drug on astrocyte proliferation (in words)” value [1] was “stimulated astrocyte proliferation”, the “Drug + Ig3” value ([1]; drug 50 μM plus Ig3 2 μg/ml (Table 5)) was 192.5 % of SFM Control and the “[3H]-thymidine incorporation, Drug + N-CAM” value ([1]; drug 50 μM plus N-CAM 2 μg/ml (Table 4)) was 205 ± 30 % SFM Ctrl. The “Drug + N-CAM” value ([1]; drug 50 μM plus N-CAM 2 μg/ml (Table 5)) was 202.5 % of SFM Control, the “[3H]-thymidine incorporation, Drug alone” value ([1]; drug 50 μM, 2×10^5 cells/ml (Table 4)) was 213 ± 47 % SFM Ctrl and the “Drug Alone” value ([1]; drug 50 μM, 2×10^5 cells/ml) was 210 % of SFM Control. For the same molecule, the “effect of drug on the ability of N-CAM to inhibit astrocyte proliferation (in words)” value [1] was “not inhibited by the concentration of N-CAM used”.

B1: N-CAM purified from embryonic chick brain: N-CAM purified from embryonic chick brain, which binds to rodent N-CAM (protein, UniProt P13590 20-1091, looked up)
Neural cell adhesion molecule …: LQVDIVPSQGEISVGESKFFLCQVAGEAKYKDISWFSPNGEKLTPNQQRISVVRNDDFSSTLTIYNANIDDAGIYKCVVSSVEEGDSEATVNVKIFQKLMFKNAPTPQEFKEGDDAVIVCDVVSSLPPTIIWKHKGRDVMLKKDVRFIVLSNNYLQIRGIKKTDEGTYRCEGRILARGEINFKDIQVIVNVPPSVRARQSTMNATANLSQSVTLACDADGFPEPTMTWTKDGEPIEQEDNEEKYSFNYDGSELIIKKVDKSDEAEYICIAENKAGEQDATIHLKVFAKPKITYVENKTAMELEDQITLTCEASGDPIPSITWKTSTRNISNEEKTLDGRIVVRSHARVSSLTLKEIQYTDAGEYVCTASNTIGQDSQAMYLEVQYAPKLQGPVAVYTWEGNQVNITCEVFAYPSAVISWFRDGQLLPSSNYSNIKIYNTPSASYLEVTPDSENDFGNYNCTAVNRIGQESSEFILVQADTPSSPSIDRVEPYSSTARVEFDEPEATGGVPILKYKAEWRALGEGEWHSRLYDAKEANVEGTITISGLKPETTYSVRLSAVNGKGVGEISLPSDFKTQPVREPSAPKLEGQMGEDGNSIKVNVIKQDDGGSPIRHYLIKYKAKHSSEWKPEIRLPSGIDHVMLKSLDWNAEYEVYVIAENQQGKSKPAHYAFRTSAQPTVIPASTSPTSGLGTAAIVGILIVIFVLLLVAVDVTCYFLNKCGLLMCIAVNLCGKSGPGAKGKDMEEGKAAFSKDESKEPIVEVRTEEERTPNHDGGKHTEPNETTPLTEPEHTADTAATVEDMLPSVTTGTTNSDTITETFATAQNSPTSETTTLTSSIAPPATAIPDSNAMSPGQATPAKAGASPVSPPPPSSTPKVAPLVDLSDTPSSAPATNNLSSSVLSNQGAVLSPSTVANMAETSKAAAGNKSAAPTPANLTSPPAPSEPKQEVSSTKSPEKEAAQPSTVKSPTETAKNPSNPKSEAASGGTTNPSQNEDFKMDEGTFKTPDIDLAKDVFAALGTTTPASVASGQARELASSTADSSVPAAPAKTEKTPVEDKSEVQATEIRHLQQK
With B1 the “effect on astrocyte proliferation (in words)” value ([1]; added to astrocyte cultures in SFM) was “also inhibited proliferation”.

B2: N-CAM treated with neuraminidase: purified N-CAM treated with neuraminidase to remove sialic acid (protein, UniProt P13596 20-858, looked up)
Neural cell adhesion molecule …: LQVDIVPSQGEISVGESKFFLCQVAGDAKDKDISWFSPNGEKLSPNQQRISVVWNDDDSSTLTIYNANIDDAGIYKCVVTAEDGTQSEATVNVKIFQKLMFKNAPTPQEFKEGEDAVIVCDVVSSLPPTIIWKHKGRDVILKKDVRFIVLSNNYLQIRGIKKTDEGTYRCEGRILARGEINFKDIQVIVNVPPTVQARQSIVNATANLGQSVTLVCDADGFPEPTMSWTKDGEPIENEEEDDEKHIFSDDSSELTIRNVDKNDEAEYVCIAENKAGEQDASIHLKVFAKPKITYVENQTAMELEEQVTLTCEASGDPIPSITWRTSTRNISSEEKASWTRPEKQETLDGHMVVRSHARVSSLTLKSIQYTDAGEYICTASNTIGQDSQSMYLEVQYAPKLQGPVAVYTWEGNQVNITCEVFAYPSATISWFRDGQLLPSSNYSNIKIYNTPSASYLEVTPDSENDFGNYNCTAVNRIGQESLEFILVQADTPSSPSIDRVEPYSSTAQVQFDEPEATGGVPILKYKAEWKSLGEEAWHSKWYDAKEANMEGIVTIMGLKPETRYAVRLAALNGKGLGEISAATEFKTQPVREPSAPKLEGQMGEDGNSIKVNLIKQDDGGSPIRHYLVKYRALASEWKPEIRLPSGSDHVMLKSLDWNAEYEVYVVAENQQGKSKAAHFVFRTSAQPTAIPANGSPTAGLSTGAIVGILIVIFVLLLVVMDITCYFLNKCGLLMCIAVNLCGKAGPGAKGKDMEEGKAAFSKDESKEPIVEVRTEEERTPNHDGGKHTEPNETTPLTEPEKGPVETKSEPQESEAKPAPTEVKTVPNEATQTKENESKA
modifications: desialylated by neuraminidase
notes: purified N-CAM treated with neuraminidase to remove sialic acid
For B2, the “[3H]-thymidine incorporation vs. SFM control” value ([1]; 2 μg/ml, n=2) was 24±4%.
